From the supplement of paper PMC10307832

Columns and labels:
Assay in all cases: relative viability (nuclei count vs DMSO), 5 days (fraction); higher = more cells survive
[1] = test system: NCI-H1623
In short: (§1)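 Relative viability divides the nuclei count in treated wells by that in vehicle wells. Lung cancer cell lines were seeded in 1536-well plates, dosed by pin tool the next day, and fixed and stained after 5 days in one step with final 0.05% Triton X-100, 1% formaldehyde and 1 ug/ml Hoechst. Dosing was a single drug or a fixed anchor-drug dose plus five library-drug doses (not always all listed) in √10 steps, and values are medians of duplicate plates imaged at 4×.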

[2] = test system: NCI-H322M
In short: as §1

[3] = test system: NCI-H1563
In short: as §1

[4] = test system: HCC-78
In short: as §1

[5] = test system: NCI-H2087
In short: as §1

[6] = test system: HCC-44
In short: as §1

[7] = test system: A549
In short: as §1

## CCNC(=O)c1noc(-c2cc(C(C)C)c(O)cc2O)c1-c1ccc(CN2CCOCC2)cc1 [Luminespib] + Cc1nc(Nc2ncc(C(=O)Nc3c(C)cccc3Cl)s2)cc(N2CCN(CCO)CC2)n1 [Dasatinib] (partner 0.075 µM)
[1]; first compound 0.002 µM
  relative viability: 0.525
[1]; first compound 0.006325 µM
  relative viability: 0.384
[1]; first compound 0.02 µM
  relative viability: 0.416
[1]; first compound 0.06325 µM
  relative viability: 0.506
[1]; first compound 0.2 µM
  relative viability: 0.406
[2]; first compound 0.002 µM
  relative viability: 0.234
[2]; first compound 0.006325 µM
  relative viability: 0.262
[2]; first compound 0.02 µM
  relative viability: 0.215
[2]; first compound 0.06325 µM
  relative viability: 0.268
[2]; first compound 0.2 µM
  relative viability: 0.276
[3]; first compound 0.002 µM
  relative viability: 0.453
[3]; first compound 0.006325 µM
  relative viability: 0.476
[3]; first compound 0.02 µM
  relative viability: 0.394
[3]; first compound 0.06325 µM
  relative viability: 0.353
[3]; first compound 0.2 µM
  relative viability: 0.341
[4]; first compound 0.002 µM
  relative viability: 0.373
[4]; first compound 0.006325 µM
  relative viability: 0.251
[4]; first compound 0.06325 µM
  relative viability: 0.455
[4]; first compound 0.2 µM
  relative viability: 0.204
[5]; first compound 0.002 µM
  relative viability: 0.757
[5]; first compound 0.006325 µM
  relative viability: 0.441
[5]; first compound 0.02 µM
  relative viability: 0.317
[5]; first compound 0.06325 µM
  relative viability: 0.102
[5]; first compound 0.2 µM
  relative viability: 0.086

## CCNC(=O)c1noc(-c2cc(C(C)C)c(O)cc2O)c1-c1ccc(CN2CCOCC2)cc1 [Luminespib] + N=C(N)NC(=N)NCCc1ccccc1 [Phenformin] (partner 250 µM)
[6]; first compound 0.002 µM
  relative viability: 0.245
[6]; first compound 0.006325 µM
  relative viability: 0.163
[6]; first compound 0.02 µM
  relative viability: 0.119
[6]; first compound 0.06325 µM
  relative viability: 0.0759
[6]; first compound 0.2 µM
  relative viability: 0.11
[1]; first compound 0.002 µM
  relative viability: 0.55
[1]; first compound 0.006325 µM
  relative viability: 0.536
[1]; first compound 0.02 µM
  relative viability: 0.493
[1]; first compound 0.06325 µM
  relative viability: 0.407
[1]; first compound 0.2 µM
  relative viability: 0.307
[2]; first compound 0.002 µM
  relative viability: 0.801
[2]; first compound 0.006325 µM
  relative viability: 0.729
[2]; first compound 0.02 µM
  relative viability: 0.717
[2]; first compound 0.06325 µM
  relative viability: 0.287
[2]; first compound 0.2 µM
  relative viability: 0.278
[3]; first compound 0.002 µM
  relative viability: 0.66
[3]; first compound 0.006325 µM
  relative viability: 0.649
[3]; first compound 0.02 µM
  relative viability: 0.597
[3]; first compound 0.06325 µM
  relative viability: 0.455
[3]; first compound 0.2 µM
  relative viability: 0.465
[4]; first compound 0.002 µM
  relative viability: 0.689
[4]; first compound 0.006325 µM
  relative viability: 0.52
[4]; first compound 0.06325 µM
  relative viability: 0.767
[4]; first compound 0.2 µM
  relative viability: 0.257
[7]; first compound 0.002 µM
  relative viability: 0.166
[7]; first compound 0.006325 µM
  relative viability: 0.132
[7]; first compound 0.02 µM
  relative viability: 0.0856
[7]; first compound 0.06325 µM
  relative viability: 0.0194
[7]; first compound 0.2 µM
  relative viability: 0.0225
[5]; first compound 0.002 µM
  relative viability: 0.493
[5]; first compound 0.006325 µM
  relative viability: 0.362
[5]; first compound 0.02 µM
  relative viability: 0.267
[5]; first compound 0.06325 µM
  relative viability: 0.136
[5]; first compound 0.2 µM
  relative viability: 0.115

## Cc1csc(=NC2CCCCC2)n1/N=C/c1ccc(O)c(O)c1O [MIM1] + CCNC(=O)c1noc(-c2cc(C(C)C)c(O)cc2O)c1-c1ccc(CN2CCOCC2)cc1 [Luminespib] (partner 0.01 µM)
[6]; first compound 0.2 µM
  relative viability: 0.952
[6]; first compound 0.6325 µM
  relative viability: 1.04
[6]; first compound 2 µM
  relative viability: 0.433
[6]; first compound 6.325 µM
  relative viability: 0.735
[6]; first compound 20 µM
  relative viability: 0.228
[1]; first compound 0.2 µM
  relative viability: 0.522
[1]; first compound 0.6325 µM
  relative viability: 0.472
[1]; first compound 2 µM
  relative viability: 0.437
[1]; first compound 6.325 µM
  relative viability: 0.446
[1]; first compound 20 µM
  relative viability: 0.404
[2]; first compound 0.2 µM
  relative viability: 0.837
[2]; first compound 0.6325 µM
  relative viability: 0.771
[2]; first compound 2 µM
  relative viability: 0.832
[2]; first compound 6.325 µM
  relative viability: 0.729
[2]; first compound 20 µM
  relative viability: 0.31
[3]; first compound 0.2 µM
  relative viability: 0.51
[3]; first compound 0.6325 µM
  relative viability: 0.607
[3]; first compound 2 µM
  relative viability: 0.519
[3]; first compound 6.325 µM
  relative viability: 0.553
[3]; first compound 20 µM
  relative viability: 0.362
[5]; first compound 0.2 µM
  relative viability: 0.145
[5]; first compound 0.6325 µM
  relative viability: 0.183
[5]; first compound 2 µM
  relative viability: 0.199
[5]; first compound 6.325 µM
  relative viability: 0.176
[5]; first compound 20 µM
  relative viability: 0.132

## Cc1csc(=NC2CCCCC2)n1/N=C/c1ccc(O)c(O)c1O [MIM1] + Cc1nc(Nc2ncc(C(=O)Nc3c(C)cccc3Cl)s2)cc(N2CCN(CCO)CC2)n1 [Dasatinib] (partner 0.075 µM)
[1]; first compound 0.2 µM
  relative viability: 0.594
[1]; first compound 0.6325 µM
  relative viability: 0.476
[1]; first compound 2 µM
  relative viability: 0.498
[1]; first compound 6.325 µM
  relative viability: 0.536
[1]; first compound 20 µM
  relative viability: 0.299
[2]; first compound 0.2 µM
  relative viability: 0.265
[2]; first compound 0.6325 µM
  relative viability: 0.245
[2]; first compound 2 µM
  relative viability: 0.249
[2]; first compound 6.325 µM
  relative viability: 0.27
[2]; first compound 20 µM
  relative viability: 0.38
[3]; first compound 0.2 µM
  relative viability: 0.538
[3]; first compound 0.6325 µM
  relative viability: 0.508
[3]; first compound 2 µM
  relative viability: 0.43
[3]; first compound 6.325 µM
  relative viability: 0.524
[3]; first compound 20 µM
  relative viability: 0.488
[4]; first compound 0.2 µM
  relative viability: 0.467
[4]; first compound 0.6325 µM
  relative viability: 0.287
[4]; first compound 2 µM
  relative viability: 0.435
[4]; first compound 6.325 µM
  relative viability: 0.344
[4]; first compound 20 µM
  relative viability: 0.487
[5]; first compound 0.2 µM
  relative viability: 0.884
[5]; first compound 0.6325 µM
  relative viability: 0.843
[5]; first compound 2 µM
  relative viability: 1.02
[5]; first compound 6.325 µM
  relative viability: 0.685
[5]; first compound 20 µM
  relative viability: 0.625

## Cc1csc(=NC2CCCCC2)n1/N=C/c1ccc(O)c(O)c1O [MIM1] + N=C(N)NC(=N)NCCc1ccccc1 [Phenformin] (partner 250 µM)
[6]; first compound 0.2 µM
  relative viability: 0.239
[6]; first compound 0.6325 µM
  relative viability: 0.138
[6]; first compound 2 µM
  relative viability: 0.111
[6]; first compound 6.325 µM
  relative viability: 0.154
[6]; first compound 20 µM
  relative viability: 0.13
[1]; first compound 0.2 µM
  relative viability: 0.561
[1]; first compound 0.6325 µM
  relative viability: 0.428
[1]; first compound 2 µM
  relative viability: 0.587
[1]; first compound 6.325 µM
  relative viability: 0.562
[1]; first compound 20 µM
  relative viability: 0.374
[2]; first compound 0.2 µM
  relative viability: 0.905
[2]; first compound 0.6325 µM
  relative viability: 0.809
[2]; first compound 2 µM
  relative viability: 0.766
[2]; first compound 6.325 µM
  relative viability: 0.735
[2]; first compound 20 µM
  relative viability: 0.36
[3]; first compound 0.2 µM
  relative viability: 0.672
[3]; first compound 0.6325 µM
  relative viability: 0.734
[3]; first compound 2 µM
  relative viability: 0.706
[3]; first compound 6.325 µM
  relative viability: 0.631
[3]; first compound 20 µM
  relative viability: 0.478
[4]; first compound 0.2 µM
  relative viability: 0.81
[4]; first compound 0.6325 µM
  relative viability: 0.53
[4]; first compound 2 µM
  relative viability: 0.628
[4]; first compound 6.325 µM
  relative viability: 0.597
[4]; first compound 20 µM
  relative viability: 0.347
[7]; first compound 0.2 µM
  relative viability: 0.164
[7]; first compound 0.6325 µM
  relative viability: 0.108
[7]; first compound 2 µM
  relative viability: 0.144
[7]; first compound 6.325 µM
  relative viability: 0.108
[7]; first compound 20 µM
  relative viability: 0.0481
[5]; first compound 0.2 µM
  relative viability: 0.457
[5]; first compound 0.6325 µM
  relative viability: 0.443
[5]; first compound 2 µM
  relative viability: 0.478
[5]; first compound 6.325 µM
  relative viability: 0.289
[5]; first compound 20 µM
  relative viability: 0.225

## Cc1cn(-c2cc(NC(=O)c3ccc(C)c(Nc4nccc(-c5cccnc5)n4)c3)cc(C(F)(F)F)c2)cn1 [Nilotinib] + CCNC(=O)c1noc(-c2cc(C(C)C)c(O)cc2O)c1-c1ccc(CN2CCOCC2)cc1 [Luminespib] (partner 0.01 µM)
[6]; first compound 0.001 µM
  relative viability: 0.845
[6]; first compound 0.003162 µM
  relative viability: 1.12
[6]; first compound 0.01 µM
  relative viability: 1.14
[6]; first compound 0.03162 µM
  relative viability: 0.943
[6]; first compound 0.1 µM
  relative viability: 0.833
[1]; first compound 0.001 µM
  relative viability: 0.43
[1]; first compound 0.003162 µM
  relative viability: 0.516
[1]; first compound 0.01 µM
  relative viability: 0.63
[1]; first compound 0.03162 µM
  relative viability: 0.498
[1]; first compound 0.1 µM
  relative viability: 0.544
[2]; first compound 0.001 µM
  relative viability: 1.08
[2]; first compound 0.003162 µM
  relative viability: 0.481
[2]; first compound 0.01 µM
  relative viability: 1.08
[2]; first compound 0.03162 µM
  relative viability: 0.797
[2]; first compound 0.1 µM
  relative viability: 1.02
[3]; first compound 0.001 µM
  relative viability: 0.546
[3]; first compound 0.003162 µM
  relative viability: 0.475
[3]; first compound 0.01 µM
  relative viability: 0.534
[3]; first compound 0.03162 µM
  relative viability: 0.51
[3]; first compound 0.1 µM
  relative viability: 0.441
[5]; first compound 0.001 µM
  relative viability: 0.162
[5]; first compound 0.003162 µM
  relative viability: 0.219
[5]; first compound 0.01 µM
  relative viability: 0.202
[5]; first compound 0.03162 µM
  relative viability: 0.172
[5]; first compound 0.1 µM
  relative viability: 0.164
